For test [1], the target named is Enterobacter cloacae P99 (class C) serine β-lactamase (Enterobacter cloacae, UniProt P05364). As to the kind of experiment: biochemical. How it is done: (§1) Representative compounds of the invention were evaluated as inhibitors of two serine β-lactamases: Enterobacter cloacae P99 (class C), TEM-1 (class A), as well as two class B enzymes: the L1 metallo-β-lactamse derived from Stenotrophomonas maltophilia) and the metallo-β-lactamase derived from the Bacillus cereus microorganism. The IC50 value of each compound was determined as follows. Assay method involves 4 min incubation of a solution of inhibitor and enzyme (0.1 to 1 μM in enzyme), followed by transfer of an aliquot into a dilute solution of the substrate nitrocefin. Hydrolysis is monitored spectrophotometrically at 480 nm for 1 min.

A further test relates to class B β-lactamases. As to the kind of experiment: Inhibition of class B β-lactamases, summary in words. The format is biochemical. The settings on record: summary of Table 1 in words. Here is the method:
as §1, with “min. The rate is constant throughout this period. Error is ±10%, based on multiple experiments.” for “min.”

In test [2] the target is L1 metallo-β-lactamase (class B) (Stenotrophomonas maltophilia, UniProt P52700). As to the kind of experiment: Inhibition of L1 metallo-β-lactamase (nitrocefin hydrolysis). The test is classed as biochemical. How it is done: as §1, with “min. The rate is constant throughout this period. Error is ±10%, based on multiple experiments.” for “min.”
For test [3], the target named is BC1 metallo-β-lactamase (class B) (Bacillus cereus, UniProt P04190). As to the kind of experiment: biochemical. How it is done: as §1, with “min. The rate is constant throughout this period. Error is ±10%, based on multiple experiments.” for “min.”
The target in test [4] is TEM-1 (class A) serine β-lactamase (Escherichia coli, UniProt P62593). As to the kind of experiment: Inhibition of TEM-1 β-lactamase (nitrocefin hydrolysis). The format is biochemical. The settings on record: 4 min incubation of inhibitor and enzyme (0.1 to 1 μM), substrate nitrocefin, 480 nm; error ±10%. Here is the method: as §1
Test [5] relates to serine and metallo-β-lactamases. As to the kind of experiment: Inhibition of serine and metallo-β-lactamases, summary in words. The format is biochemical. The settings on record: summary of Table 1 in words. Here is the method:
as §1

The mark [6] stands for this setting: 4 min incubation of inhibitor and enzyme (0.1 to 1 μM), substrate nitrocefin, 480 nm, error ±10%, read-out: Inhibition IC50, P99 (Class C) (Serine).
Where [7] appears, read: Inhibition IC50, P99 (Class C) (Serine), 4 min incubation of inhibitor and enzyme (0.1 to 1 μM), substrate nitrocefin, 480 nm, error ±10%.
The mark [8] stands for this setting: 4 min incubation of inhibitor and enzyme (0.1 to 1 μM), substrate nitrocefin, 480 nm, error ±10%, read-out: Inhibition IC50, L1 (Class B) (Metallo).
Setting [9] is: read-out: Inhibition IC50, BC1 (Class B) (Metallo), 4 min incubation of inhibitor and enzyme (0.1 to 1 μM), substrate nitrocefin, 480 nm, error ±10%.

Structures can show the parent of a compound that is named as a salt. Where two headings read alike, the source gives them in different places.

L1 metallo-β-lactamase (class B), sequence (P52700 34-290): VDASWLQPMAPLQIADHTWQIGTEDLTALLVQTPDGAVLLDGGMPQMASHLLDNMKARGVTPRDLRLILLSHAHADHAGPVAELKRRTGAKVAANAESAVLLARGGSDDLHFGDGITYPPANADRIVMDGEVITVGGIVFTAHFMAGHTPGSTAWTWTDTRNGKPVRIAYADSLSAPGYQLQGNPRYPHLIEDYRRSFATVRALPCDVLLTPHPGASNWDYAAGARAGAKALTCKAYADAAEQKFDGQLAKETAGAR
TEM-1 (class A) serine β-lactamase, sequence (P62593 24-286 limits assumed): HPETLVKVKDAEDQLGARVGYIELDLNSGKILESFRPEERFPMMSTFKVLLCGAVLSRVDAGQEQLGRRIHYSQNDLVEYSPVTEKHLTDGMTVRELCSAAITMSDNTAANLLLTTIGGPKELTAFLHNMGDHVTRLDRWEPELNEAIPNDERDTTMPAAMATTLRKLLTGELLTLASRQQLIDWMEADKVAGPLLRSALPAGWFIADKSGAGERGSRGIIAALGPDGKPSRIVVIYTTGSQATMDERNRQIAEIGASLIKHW
Enterobacter cloacae P99 (class C) serine β-lactamase, sequence (P05364 21-381): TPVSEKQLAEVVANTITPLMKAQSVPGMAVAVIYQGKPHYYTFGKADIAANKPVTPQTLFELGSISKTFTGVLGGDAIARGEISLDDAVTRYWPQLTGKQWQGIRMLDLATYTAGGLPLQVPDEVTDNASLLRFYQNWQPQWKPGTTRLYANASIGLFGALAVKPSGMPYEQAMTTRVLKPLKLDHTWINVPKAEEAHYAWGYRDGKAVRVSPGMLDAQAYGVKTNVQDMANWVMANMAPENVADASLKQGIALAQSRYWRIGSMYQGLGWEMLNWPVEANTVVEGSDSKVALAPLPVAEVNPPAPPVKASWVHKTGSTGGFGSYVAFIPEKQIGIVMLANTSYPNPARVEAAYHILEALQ
BC1 metallo-β-lactamase (class B), sequence (P04190 31-257): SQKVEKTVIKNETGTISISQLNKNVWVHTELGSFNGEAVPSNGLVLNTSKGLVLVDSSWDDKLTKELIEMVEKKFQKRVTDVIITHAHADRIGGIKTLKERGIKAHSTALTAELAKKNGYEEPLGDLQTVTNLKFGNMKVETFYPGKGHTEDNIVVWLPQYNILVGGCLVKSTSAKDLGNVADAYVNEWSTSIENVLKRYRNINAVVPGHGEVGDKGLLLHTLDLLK

Consider `CC1(C)[C@H](C(=O)O)N2C(=O)C(CO)C2S1(=O)=O` (single isomer, unassigned) [Compound 15, Sodium Salt of 6β-(hydroxymethyl)penicillinate-1,1-dioxide, reference compound], for which the IC50 (usually the concentration that gives 50% inhibition) was 3.9 µM in test [1] (setting [6]), over 2000 µM in test [2] and over 2000 µM in test [3]. Moreover, the “ability to inhibit the class B β-lactamases” value with class B β-lactamases was “none of the latter, previously known, 6-(hydroxymethyl)penicillinates possess such ability”.
As for `CC1(C)S[C@@H]2C(CO)C(=O)N2[C@H]1C(=O)O` (single isomer, unassigned) [Compound 16, Sodium Salt of 6β-(hydroxymethyl)penicillinate, reference compound], the IC50 in test [1] (setting [7]) is 409 µM; in test [4] it was 752 µM; in test [2] (setting [8]) it was over 2000 µM; in test [3] (setting [9]), over 2000 µM. Moreover, the “ability to inhibit the class B β-lactamases” value with class B β-lactamases was “none of the latter, previously known, 6-(hydroxymethyl)penicillinates possess such ability”.
For the compound `CC1(C)[C@H](C(=O)O)N2C(=O)C(CO)C2S1(=O)=O` (single isomer, unassigned) [Compound 27, Sodium Salt of 6α-(hydroxymethyl)penicillinate-1,1-dioxide, reference compound], the IC50 in test [1] (setting [6]) is 10 µM; in test [2] (read-out: Inhibition IC50, L1 (Class B) (Metallo), 4 min incubation of inhibitor and enzyme (0.1 to 1 μM), substrate nitrocefin, 480 nm, error ±10%) it was over 2000 µM; in test [3] (setting [9]) it was over 2000 µM. For the same compound, in the test on class B β-lactamases, the “ability to inhibit the class B β-lactamases” value was “none of the latter, previously known, 6-(hydroxymethyl)penicillinates possess such ability”.
For the compound `CC1(C)S[C@@H]2C(CO)C(=O)N2[C@H]1C(=O)O` (single isomer, unassigned) [Compound 28, Sodium Salt of 6α-(hydroxymethyl)penicillinate, reference compound], the IC50 in test [1] (setting [7]) is 96.2 µM; in test [4], 275 µM; in test [2], over 2000 µM; in test [3] it was over 2000 µM. In addition, the “ability to inhibit the class B β-lactamases” value in the test with class B β-lactamases was “none of the latter, previously known, 6-(hydroxymethyl)penicillinates possess such ability”.
With `CC1(C)S[C@@H]2C(CS)C(=O)N2[C@H]1C(=O)[O-].[Na+]` (stereo partly drawn) [Compound 9, Sodium Salt of 6β-(mercaptomethyl)penicillanic acid], the IC50 in test [1] (setting [6]) was found to be 0.1 µM; in test [4], 601 µM; in test [2] (setting [8]) it was 72.2 µM; in test [3], 12.3 µM. Moreover, the “ability to inhibit the class B β-lactamases” value with class B β-lactamases was “possess the ability to inhibit the class B β-lactamases”.
As to `CC1(C)[C@H](C(=O)[O-])N2C(=O)[C@@H](CS)[C@H]2S1(=O)=O.[Na+]` [Compound 13, Sodium Salt of 6β-(mercaptomethyl)penicallin acid 1,1-dioxide], the IC50 in test [1] (setting [7]) was found to be 10.5 µM; in test [4] it was 6.8 µM; in test [2] (setting [8]), 0.13 µM; in test [3], 64 µM. Besides, in the test with class B β-lactamases, the “ability to inhibit the class B β-lactamases” value was “possess the ability to inhibit the class B β-lactamases”. Further, in test [5], the “broad spectrum inhibitory activity” value is “excellent broad spectrum inhibitory activity”.
Consider `CC1(C)S[C@@H]2[C@@H](CS)C(=O)N2[C@H]1C(=O)[O-].[Na+]` [Compound 21, Sodium Salt of 6α-(mercaptomethyl)penicillinate], for which the IC50 in test [1] (setting [6]) was 3.75 µM; in test [4], 648 µM; in test [2] (setting [8]) it was 81.4 µM; in test [3], 7.6 µM. Further, the “ability to inhibit the class B β-lactamases” value with class B β-lactamases is given as “possess the ability to inhibit the class B β-lactamases”.
For the compound `CC1(C)[C@H](C(=O)[O-])N2C(=O)[C@H](CS)[C@H]2S1(=O)=O.[Na+]` [Compound 25, Sodium Salt of 6α-(mercaptomethyl)penicallin acid 1,1-dioxide], the IC50 in test [1] came to 7.5 µM; in test [4] it was 51.7 µM; in test [2] (setting [8]) it was 0.82 µM; in test [3], 770 µM. In addition, in the test on class B β-lactamases, the “ability to inhibit the class B β-lactamases” value is on record as “possess the ability to inhibit the class B β-lactamases”.
Regarding `C[C@]1(Cn2ccnn2)[C@H](C(=O)O)N2C(=O)C[C@H]2S1(=O)=O` [Tazobactam], the IC50 in test [2] (setting [8]) and in test [3] was over 2000 µM each time.

The values are drawn from patent publication US7022691B2, “Inhibitors of serine and metallo-β-lactamases” (priority 2002, dated 2006).
